Consider two compounds from ChEMBL document CHEMBL1156463, “Survivin down-regulation plays a crucial role in 3-hydroxy-3-methylglutaryl coenzyme A reductase inhibitor-induced apoptosis in cancer” (J Biol Chem, 2007).

Experiment [1] has as its system SW480. Nature of the experiment: Decrease in survivin expression in human SW480 cells at 20 uM after 24 hrs by immunoblot analysis. In kind it is functional, cell-based. Background: A western blot detects proteins with antibodies after separation by electrophoresis.
Experiment [2] deals with SW480. Nature of the experiment: Reversal of growth inhibition of human SW480 cells at 20 uM after 48 hrs by […] in presence of squalene. In kind it is functional, cell-based.
The subject of experiment [3] is SW480. Description: Reversal of decrease in isoprenylated Ras level in human SW480 cells at 20 uM after 48 hrs by immunoblot analysis in presence of farnesyl pyrophosphate. In kind it is functional, cell-based.
The subject of experiment [4] is LS180. Description: Inhibition of survivin expression in parent human LS180 cells at 20 uM by immunoblot analysis. In kind it is functional, cell-based.
Experiment [5] concerns SW480. Nature of the experiment: Induction of apoptosis in human SW480 cells at 20 uM after 48 hrs by annexin-V propidium iodide staining method. In kind it is functional.
The subject of experiment [6] is SW480. Description: Reversal of decrease in isoprenylated Ras level in human SW480 cells at 20 uM after 48 hrs by immunoblot analysis in presence of squalene. In kind it is functional, cell-based.
For experiment [7], the system named is LS180. Nature of the experiment: Inhibition of survivin expression in survivin gene transfected human LS180 cells at 20 uM immunoblot analysis. In kind it is functional, cell-based.
Experiment [8] relates to SW480. Description: Inhibition of FBS-stimulated increase in Ras protein expression in human SW480 cells assessed as GTP-bound protein at 20 uM by immunoblot analysis. In kind it is functional, cell-based.
The test system of experiment [9] is SW480. Description: Effect on Bax expression in human SW480 cells. In kind it is functional, cell-based.
In experiment [10] the test system is SW480. Description: Decrease in survivin expression in human SW480 cells at 20 uM after 48 hrs by immunoblot analysis. In kind it is functional, cell-based.
Experiment [11] has as its system HT-29. Nature of the experiment: Growth inhibition of human HT29 cells after 96 hrs by MTS assay. In kind it is functional, cell-based. The conditions noted are these: HT-29, 96 h.
Experiment [12] in a line: Growth inhibition of human LS180 cells after 96 hrs by MTS assay. In kind it is functional, cell-based. The conditions noted are these: LS180, 96 h.
The test system of experiment [13] is SW480. Nature of the experiment: Induction of cell cycle arrest in human SW480 cells by accumulation at G0/G1 phase at 20 uM after 48 hrs by flow cytometry. In kind it is functional, cell-based. Background: A flow cytometer gives signals particle by particle.
In experiment [14] the test system is SW480. Nature of the experiment: Reversal of reduction in survivin expression in human SW480 cells at 20 uM after 48 hrs by immunoblot analysis in presence of 100 uM mevalonate. In kind it is functional, cell-based.
In experiment [15] the test system is SW480. Description: Reversal of decrease in isoprenylated Ras level in human SW480 cells at 20 uM after 48 hrs by immunoblot analysis in presence of geranylgeranyl pyrophosphate. In kind it is functional, cell-based.
For experiment [16], the system named is SW480. Nature of the experiment: Decrease in survivin mRNA expression in human SW480 cells at 20 uM after 48 hrs by RT-PCR technique. In kind it is functional.
Experiment [17] relates to SW480. Description: Growth inhibition of human SW480 cells after 96 hrs by MTS assay. In kind it is functional, cell-based. The conditions noted are these: SW480, 96 h.
In experiment [18] the test system is SW480. Description: Reversal of growth inhibition of human SW480 cells at 20 uM after 48 hrs by […] in presence of geranylgeranyl pyrophosphate. In kind it is functional, cell-based.
Experiment [19] relates to SW480. Description: Induction of cell cycle arrest in human SW480 cells by accumulation at G2/M phase at 20 uM after 48 hrs by flow cytometry. In kind it is functional, cell-based.
Experiment [20] deals with RAC-alpha serine/threonine-protein kinase (Homo sapiens) (UniProt P31749). Description: Inhibition of FBS-stimulated increase in Akt phosphorylation in human SW480 cells at 20 uM by immunoblot analysis. In kind it is cell-based.
The subject of experiment [21] is SW480. Nature of the experiment: Induction of apoptosis in human SW480 cells assessed as increase in hypodiploid DNA content at 20 uM after 48 hrs by flow cytometry relative to control. In kind it is functional.
In experiment [22] the test system is SW480. Nature of the experiment: Reversal of inhibition of FBS-stimulated increase in Ras protein expression in human SW480 cells assessed as GTP-bound protein at 20 uM by immunoblot analysis. In kind it is functional, cell-based.
Experiment [23] relates to SW480. Description: Induction of cell cycle arrest in human SW480 cells by accumulation at S phase at 20 uM after 48 hrs by flow cytometry. In kind it is functional, cell-based.
Experiment [24] concerns LS180. Description: Blockade of growth inhibition of survivin gene transfected human LS180 cells after 72 hrs by MTS method. In kind it is functional, cell-based. On the technique in general: Tetrazolium assays rely on reduction of a dye to a coloured formazan, in cell work by metabolically active cells.
In experiment [25] the test system is SW480. Description: Reversal of growth inhibition of human SW480 cells at 20 uM after 48 hrs by MTS assay in presence of >50 uM mevalonate. In kind it is functional, cell-based.
Experiment [26] relates to SW480. Nature of the experiment: Reversal of reduction in survivin mRNA expression in human SW480 cells at 20 uM after 48 hrs by RT-PCR technique in presence of 100 uM mevalonate. In kind it is functional, cell-based.
In experiment [27] the test system is SW480. Description: Reversal of growth inhibition of human SW480 cells at 20 uM after 48 hrs by […] in presence of farnesyl pyrophosphate. In kind it is functional, cell-based.
For experiment [28], the system named is LS180. Description: Blockade of growth inhibition of human LS180 cells after 72 hrs by MTS method. In kind it is functional, cell-based.
The test system of experiment [29] is SW480. Description: Decrease in isoprenylated Ras level in human SW480 cells at 20 uM after 48 hrs by immunoblot analysis. In kind it is functional, cell-based.
Experiment [30] deals with SW480. Nature of the experiment: Reversal of decrease in isoprenylated Ras level in human SW480 cells at 20 uM after 48 hrs by immunoblot analysis in presence of mevalonate. In kind it is functional, cell-based.

Activity calls are given as the source filed them. The calls are words filed in the database; no cut-off is given here.

Chain of RAC-alpha serine/threonine-protein kinase (Homo sapiens) (P31749 whole entry): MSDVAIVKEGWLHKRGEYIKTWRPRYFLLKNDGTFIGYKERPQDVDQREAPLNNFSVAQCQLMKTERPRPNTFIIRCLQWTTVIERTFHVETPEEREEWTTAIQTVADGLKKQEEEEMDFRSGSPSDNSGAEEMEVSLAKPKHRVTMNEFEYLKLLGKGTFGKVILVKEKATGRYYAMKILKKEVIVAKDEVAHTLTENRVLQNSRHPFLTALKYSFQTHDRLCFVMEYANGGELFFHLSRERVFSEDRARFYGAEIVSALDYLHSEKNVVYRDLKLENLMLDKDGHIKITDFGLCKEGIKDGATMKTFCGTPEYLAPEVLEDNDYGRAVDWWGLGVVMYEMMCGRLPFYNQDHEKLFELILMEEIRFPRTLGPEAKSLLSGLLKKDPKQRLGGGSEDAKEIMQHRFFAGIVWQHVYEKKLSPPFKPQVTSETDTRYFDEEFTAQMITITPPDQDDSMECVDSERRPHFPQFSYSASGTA

Regarding `O=c1cc(N2CCOCC2)oc2c(-c3ccccc3)cccc12`, the outcome in experiment [1] was Active.
What is called IC50 is the concentration that gives 50% inhibition. The low end stands for higher potency, the high end for lower potency. On to `CC[C@H](C)C(=O)O[C@H]1C[C@@H](C)C=C2C=C[C@H](C)[C@H](CC[C@@H]3C[C@@H](O)CC(=O)O3)[C@H]21` [LOVASTATIN], for which the result in experiment [2], in [6], in experiment [9], in experiment [13], in [19] and in experiment [23] was inactive. The outcome in experiment [3], in experiment [4], in experiment [7], in [8], in experiment [10] and in [14] was Active. The result in experiment [15], in experiment [18], in [20], in experiment [22], in experiment [25] and in experiment [26] was Active. Moreover, the result in experiment [27], in [28], in [29] and in experiment [30] was Active. The Activity in experiment [5] was 24.2%; in [16], 60%; in experiment [21], 20.7%; in experiment [24] it was “Dose-dependent effect”. Besides, the IC50 in experiment [11] amounted to 46.8 µM; in [12] it was 25.3 µM; in experiment [17], 7.1 µM.
